Like-named read-outs stand apart in the source and are kept apart here.
Experiments:
A498 = assay: XTT cell viability assay, A498; assay type: cell-based, human; conditions: XTT assay (48 h), standard deviation of 10%, read-out: EC50 (μM) Kidney A498
Procedure: (§1) Fifty microliters of sodium 3′-[1-phenylaminocarbonyl)-3,4-tetrazolium]-bis(4-methoxy-6-nitro) benzene sulfonic acid hydrate (XTT) reagent was added to each well. The assay is based on the cleavage of the yellow tetrazolium salt XTT to form an orange formazan dye by metabolically active cells. The absorbance of the formazan product, reflecting cell viability, was measured at 490 nm. Each assay was performed in quadruplicate.
(§2) Compounds #1-#14 have been assayed as potential anti-proliferative agents against a panel of human breast head and neck, and kidney tumor cells and hematological malignancies, selected on the basis of their aggressiveness (e.g. incurable triple-negative breast cancer cells: MDA-MB-231; kidney ccRCC cells: RCC4, A498 and 786-O and 786R; head and neck cancer cells: CAL33, CAL33RR, CAL27, and CAL27RR; acute myeloid cell lines: OCI-AML2, OCI-AML3, MolM13, and MolM14; myelodysplastic cell line: SM1; and chronic myeloid cell line: CML). All these cell lines share as common denominator the expression of CXCR1 and CXCR2. The EC50 values have been measured by a XTT colorimetric assay, and compared to those of SB-225002, used as a reference; the results are listed in Table 1.

RCC4 = assay: XTT cell viability assay, RCC4; assay type: cell-based; conditions: Homo sapiens, XTT assay (48 h), standard deviation of 10%, read-out: EC50 (μM) Kidney RCC4
Procedure: as §1, §2

786-O = assay: XTT cell viability assay, 786-O; assay type: cell-based, human; conditions: Homo sapiens, 786-0; XTT assay (48 h); standard deviation of 10%; read-out: EC50 (μM) Kidney 786-O
Procedure: (§3) A, B: Naive (786-O, A), and sunitinib-resistant (786-R, B) 786-O cells, were treated with compound #1 or sunitinib (1 to 10 μM) for 48 hr. Cell viability was measured by XTT assays;
(§4) D, E: 786-O (D), 786-R (E), were treated with 2.5 μM compound #1 or 2.5 μM sunitinib for 24 h to 96 h. The cells metabolism was measured by XTT assay;
as §1, §2

786R = assay: XTT cell viability assay, 786R (sunitinib-resistant); assay type: cell-based, human; conditions: Homo sapiens, 48 h, XTT assay (48 h); sunitinib-resistant; standard deviation of 10%; read-out: EC50 (μM) Kidney 786R
Procedure: as §3, §4, §1, §2

CAL33 = assay: XTT cell viability assay, CAL33; assay type: cell-based; conditions: Homo sapiens, CAL-33; XTT assay (48 h); standard deviation of 10%; read-out: EC50 (μM) Head and Neck CAL33
Procedure: as §1, §2

CAL33RR = assay: XTT cell viability assay, CAL33RR; assay type: cell-based; conditions: Homo sapiens, light or radiation study; XTT assay (48 h); resistant to irradiation and cisplatin; standard deviation of 10%; read-out: EC50 (μM) Head and Neck CAL33RR
Procedure: as §1, §2

CAL27 = assay: XTT cell viability assay, CAL27; assay type: cell-based, human; conditions: Homo sapiens, CAL-27, 48 h, XTT assay (48 h); standard deviation of 10%; read-out: EC50 (μM) Head and Neck CAL27
Procedure: (§5) A, B: Naive (Cal27, A), and cisplatine-resistant (Cal27R, B) Cal27 cells, were treated with compound #1 or cisplatine (1 to 10 μM) for 48 hr. Cell viability was measured by XTT assays;
(§6) C, D: Cal27 (C), cal27R (D), were treated with 2.5 μM compound #1, 2.5 μM cisplatin for 24 h to 96 h. The metabolism of cells was measured by XTT assay.
as §1, §2

CAL27RR = assay: XTT cell viability assay, CAL27RR (cisplatin-resistant); assay type: cell-based, human; conditions: Homo sapiens, light or radiation study; XTT assay (48 h); resistant to irradiation and cisplatin; standard deviation of 10%; read-out: EC50 (μM) Head and Neck CAL27RR
Procedure: as §5, §6, §1, §2

MDA-MB-231 = assay: XTT cell viability assay, MDA-MB-231; assay type: cell-based; conditions: Homo sapiens, XTT assay (48 h), standard deviation of 10%, read-out: EC50 (μM) Breast MDA-MB-231
Procedure: as §1, §2

OCI-AML2 = assay: XTT cell viability assay, OCI-AML2; assay type: cell-based, human; conditions: XTT assay (48 h), standard deviation of 10%, read-out: EC50 (μM) AML OCI-AML2
Procedure: as §1, §2

OCI-AML3 = assay: XTT cell viability assay, OCI-AML3; assay type: cell-based, human; conditions: XTT assay (48 h), standard deviation of 10%
Procedure: as §1, §2

MolM13 = assay: XTT cell viability assay, MolM13; assay type: cell-based, human; conditions: XTT assay (48 h), standard deviation of 10%, read-out: EC50 (μM) AML MolM13
Procedure: as §1, §2

MolM14 = assay: XTT cell viability assay, MolM14; assay type: cell-based, human; conditions: XTT assay (48 h), standard deviation of 10%, read-out: EC50 (μM) AML MolM14
Procedure: as §1, §2

SKM1 = assay: XTT cell viability assay, SKM1; assay type: cell-based, human; conditions: XTT assay (48 h), standard deviation of 10%, read-out: EC50 (μM) MDS SKM1
Procedure: as §1, §2

K562 = assay: XTT cell viability assay, K562; assay type: cell-based, human; conditions: XTT assay (48 h), standard deviation of 10%, read-out: EC50 (μM) CML K562
Procedure: as §1, §2

| EC50 (786-O) [µM] | EC50 (MDA-MB-231) [µM] | EC50 (OCI-AML2; Homo sapiens, OCI-AML2) [µM] | EC50 (OCI-AML3; Homo sapiens, OCI-AML-3) [µM] | EC50 (MolM13; Homo sapiens, MOLM-13) [µM] | EC50 (MolM14; Homo sapiens, MOLM-14) [µM] | EC50 (SKM1; Homo sapiens, SKM-1) [µM] | EC50 (K562; Homo sapiens, K562) [µM] | Compound | EC50 (A498; Homo sapiens, A498) [µM] | EC50 (RCC4) [µM] | EC50 (786R) [µM] | EC50 (CAL33) [µM] | EC50 (CAL33RR) [µM] | EC50 (CAL27) [µM] | also measured |
| --- | --- | --- | --- | --- | --- | --- | --- | --- | --- | --- | --- | --- | --- | --- | --- |
| 5 |  |  |  |  |  |  |  | O=C(Nc1ccc(Br)cc1)Nc1nc2ccc([N+](=O)[O-])cc2s1 [Compound #12, 1-(4-bromophenyl)-3-(6-nitrobenzo[d]thiazol-2-yl)urea] | 7 | 7 | 5 | < 2.5 | 20 | 5 | EC50 (CAL27RR): 2.5 µM |
| 20 | 20 | 20 | 22 | > 25 | 20 | > 25 | 12 | O=C(Nc1ccc(Cl)cc1)Nc1nc2ccccc2[nH]1 [Compound #6, 1-(1H-benzo[d]imidazol-2-yl)-3-(4-chlorophenyl)urea] | 9 | 20 |  |  |  |  |  |
| 20 | 12 | 18 | 25 | 25 | 20 | 25 | 10 | O=C(Nc1ccccc1)Nc1nc2ccccc2[nH]1 [Compound #5, 1-(1H-benzo[d]imidazol-2-yl)-3-phenylurea] | 10 | 25 |  |  |  |  |  |
| 15 |  |  |  |  |  |  |  | O=C(Nc1nc2ccc([N+](=O)[O-])cc2s1)Nc1ccccc1Br [Compound #13, 1-(2-bromophenyl)-3-(6-nitrobenzo[d]thiazol-2-yl)urea] | 20 | 25 | 14 | 8 | > 25 | > 25 |  |
| > 25 | > 25 | > 25 | > 25 | > 25 | > 25 | > 25 | > 25 | O=C(Nc1ccccc1)Nc1nc2ccccc2o1 [Compound #5-1, 1-(benzo[d]oxazol-2-yl)-3-phenylurea, reference compound] | > 25 | > 25 |  |  |  |  |  |
| > 25 | > 25 | > 25 | > 25 | > 25 | > 25 | > 25 | 25 | O=C(Nc1cccc(Cl)c1)Nc1nc2ccccc2s1 [Compound #8, 1-(benzo[d]thiazol-2-yl)-3-(3-chlorophenyl)urea] | > 25 | 20 |  |  |  |  |  |
|  |  |  |  |  |  |  |  | O=C(Nc1ccc([N+](=O)[O-])cc1O)Nc1ccccc1Br [SB-225002, reference compound] |  |  |  |  |  |  | EC50 (A498): 70 µM; EC50 (OCI-AML2): > 100 µM; EC50 (OCI-AML3; read-out: EC50 (μM) AML OCI-AML3): 90 µM; EC50 (MolM13): > 100 µM; EC50 (MolM14): 90 µM; EC50 (SKM1): > 100 µM; EC50 (K562): > 100 µM |
| > 25 | > 25 | > 25 | > 25 | > 25 | > 25 | > 25 | 25 | COc1ccc(NC(=O)Nc2nc3ccccc3s2)cc1 [Compound #10, 1-(benzo[d]thiazol-2-yl)-3-(4-methoxyphenyl)urea] | > 25 | 15 |  |  |  |  |  |
| > 25 | > 25 | 10 | > 25 | > 25 | > 25 | > 25 | > 25 | O=C(Nc1nc2ccccc2s1)Nc1ccccc1Cl [Compound #7, 1-(benzo[d]thiazol-2-yl)-3-(2-chlorophenyl)urea] | > 25 | 25 |  |  |  |  |  |
| > 25 | > 25 | > 25 | > 25 | > 25 | > 25 | > 25 | 25 | O=C(Nc1ccc(Cl)cc1)Nc1nc2ccccc2s1 [Compound #9, 1-(benzo[d]thiazol-2-yl)-3-(4-chlorophenyl)urea] | 25 | 20 |  |  |  |  |  |
| 15 | > 25 | > 25 | 10 | 15 | 10 | 25 | 25 | Cc1ccc2nc(NC(=O)Nc3ccccc3Cl)sc2c1 [Compound #4, 1-(2-chlorophenyl)-3-(6-methylbenzo[d]thiazol-2-yl)urea] | 15 | > 25 |  |  |  |  |  |
| 4 |  |  |  |  |  |  |  | O=C(Nc1cccc(Cl)c1)Nc1nc2ccc([N+](=O)[O-])cc2[nH]1 [Compound #14, 1-(3-chlorophenyl)-3-(6-nitro-1H-benzo[d]imidazol-2-yl)urea] | 5 | 3 | 4 | 15 | 25 | 15 | EC50 (CAL27RR): 10 µM |
| 5 |  |  |  |  |  |  |  | O=C(Nc1cc(Cl)cc(Cl)c1)Nc1nc2ccc([N+](=O)[O-])cc2s1 [Compound #11, 1-(3,5-dichlorophenyl)-3-(6-nitrobenzo[d]thiazol-2-yl)urea] | 2.5 | 2 | 5 | 4 | 4 | 2.5 | EC50 (CAL27RR): 2.5 µM |

— patent US20210380547A1, “UREA DERIVATIVES FOR TREATING AND/OR PREVENTING CANCER” (CENTRE NATIONAL DE LA RECHERCHE SCIENTIFIQUE, priority 2018, published 2021)
